From paper PMC8545225 (Nanoscale, 2021)

Assay: 2D DOSY NMR diffusion measurement and hydrodynamic size
Type: physicochemical
Settings: DOSY NMR in D2O, free ligands at 289.75 K

Row | Compound | Diffusion coefficient ds
1 | O=C(O)c1ccc(P(c2ccccc2)c2ccccc2)cc1 [DPPBA, 4-(diphenylphosphino)benzoic acid] | 1.37 × 10^−9 m^2·s^−1
2 | O=S(=O)([O-])c1cccc(P(c2ccccc2)c2ccccc2)c1.[Na+] [TPPMS, triphenylphosphine monosulfonate] | 2.42 × 10^−10 m^2·s^−1
